Experimental data as given in US12577227B2, “WDR5 inhibitors and modulators” (Vanderbilt University, priority 2019, dated 2026).

Each compound was assayed on MV4:11 human cancer cell lines (assay: Cellular viability / anti-proliferative activity (CellTiter-Glo)). Details: MV4-11, 120 h, MV-4-11 cells, 5 day protocol, mean of minimum two replicates, read-out: GI50 on cellular proliferation of MV4:11 human cancer cell lines.
Type: cell-based
Description: Cellular Viability of Human Tumor Cell Lines
Anti-Proliferative Activity Using MLL-Harboring Cell Lines.
MV-4-11 and K562 cells are grown in IMDM media supplemented with 10% FBS and […], Molm-13 cells are cultured in RPMI-1640 media supplemented with 10% FBS and 1% o penicillin/streptomycin. Viability assays are performed by dispensing 200 cells at 7200 cells/mL into each well of an opaque 384-well plate and adding compounds at the indicated concentrations in a final volume of 32 μL and a final concentration of DMSO of 0.3% for all samples. A certain range of compound concentrations is made through a series of 2-fold dilutions starting 30 μM at the highest, total 22 dilutions. After a set incubation period, 5 day protocol, the viability of cells in each well is assessed using the CellTiter-Glo assay (Promega), read on a 96 Microplane Luminometer (Cytation 3, BioTek). Serial dilutions of each cell type are performed in all assays to generate standard curves and the final densities of cells are determined within the dynamic range of the instrument. GI50 values are calculated based on XLfit software (IDBS, Guildford, UK) with Sigmoidal Dose-Response Model. Each compound is tested in minimum of two replicates. Data are expressed as mean.

Row | Compound | GI50
1 | COc1cc(Cn2cnc3c(-c4ccc(F)cc4C)cc(Cn4cnn(C)c4=N)cc3c2=O)cc(OC)c1 [Example 18, 3-(3,5-Dimethoxybenzyl)-8-(4-fluoro-2-methylphenyl)-6-((5-imino-1-methyl-1,5-dihydro-4H-1,2,4-triazol-4-yl)methyl)quinazolin-4(3H)-one] | 672 nM
2 | Cc1cc(C)nc(CN2CCOc3c(cc(Cn4ccnc4C)cc3-c3ccc(F)cc3C)C2=O)c1 [Example 41, 4-((4,6-Dimethylpyridin-2-yl)methyl)-9-(4-fluoro-2-methylphenyl)-7-((2-methyl-1H-imidazol-1-yl)methyl)-3,4-dihydrobenzo[f][1,4]oxazepin-5(2H)-one] | 985 nM
3 | CCc1cc(OC)c2nccc(N3CCOc4c(cc(Cn5ccnc5)cc4-c4cn(C)nc4C(F)(F)F)C3=O)c2c1 [Example 67, 7-((1H-imidazol-1-yl)methyl)-4-(6-ethyl-8-methoxyquinolin-4-yl)-9-(1-methyl-3-(trifluoromethyl)-1H-pyrazol-4-yl)-3,4-dihydrobenzo[f][1,4]oxazepin-5(2H)-one] | 321 nM
4 | CCc1nccn1Cc1cc2c(c(-c3cn(C)nc3C(F)(F)F)c1)OCCN(Cc1cc(C)ccn1)C2=O [Example 37, 7-((2-Ethyl-1H-imidazol-1-yl)methyl)-9-(1-methyl-3-(trifluoromethyl)-1H-pyrazol-4-yl)-4-((4-methylpyridin-2-yl)methyl)-3,4-dihydrobenzo[f][1,4]oxazepin-5(2H)-one] | 1080 nM
5 | CCn1cc(-c2cc(Cn3ccnc3)cc3c(=O)n([C@H](c4cc(OC)ccn4)C4CC4)cnc23)c(C(F)(F)F)n1 [Example 62, (S)-6-((1H-imidazol-1-yl)methyl)-3-(cyclopropyl(4-methoxypyridin-2-yl)methyl)-8-(1-ethyl-3-(trifluoromethyl)-1H-pyrazol-4-yl)quinazolin-4(3H)-one] | 1380 nM
6 | COc1cc(CN2CCOc3c(cc(Cn4ccoc4=N)cc3-c3ccc(F)cc3C)C2=O)cc(OC)c1 [Example 9, 4-(3,5-Dimethoxybenzyl)-9-(4-fluoro-2-methylphenyl)-7-((2-iminooxazol-3(2H)-yl)methyl)-3,4-dihydrobenzo[f][1,4]oxazepin-5(2H)-one] | 259 nM
7 | COc1cc(CN2CC(=O)Nc3c(cc(Cn4ccnc4C)cc3-c3ccc(F)cc3C)C2=O)cc(OC)c1 [Example 28, 4-(3,5-Dimethoxybenzyl)-9-(4-fluoro-2-methylphenyl)-7-((2-methyl-1H-imidazol-1-yl)methyl)-3,4-dihydro-1H-benzo[e][1,4]diazepine-2,5-dione] | 232 nM
8 | CCc1cc(C(=O)NCCN(C)C)c2nccc(N3CCOc4c(cc(Cn5ccnc5)cc4-c4cn(C)nc4C(F)(F)F)C3=O)c2c1 [Example 73, 4-(7-((1H-imidazol-1-yl)methyl)-9-(1-methyl-3-(trifluoromethyl)-1H-pyrazol-4-yl)-5-oxo-2,3-dihydrobenzo[f][1,4]oxazepin-4(5H)-yl)-N-(2-(dimethylamino)ethyl)-6-ethylquinoline-8-carboxamide] | 255 nM
9 | COc1cc(CN2CCOc3c(cc(CNc4ccccn4)cc3-c3ccc(F)cc3C)C2=O)cc(OC)c1 [Example 10, 4-(3,5-Dimethoxybenzyl)-9-(4-fluoro-2-methylphenyl)-7-((pyridin-2-ylamino)methyl)-3,4-dihydrobenzo[f][1,4]oxazepin-5(2H)-one] | > 940 nM
10 | COc1cc(CN2C[C@H](C)Oc3c(cc(Cn4ccn(C)c4=N)cc3-c3ccc(F)cc3C)C2=O)cc(OC)c1 [Example 35, (S)-4-(3,5-Dimethoxybenzyl)-9-(4-fluoro-2-methylphenyl)-7-((2-imino-3-methyl-2,3-dihydro-1H-imidazol-1-yl)methyl)-2-methyl-3,4-dihydrobenzo[f][1,4]oxazepin-5(2H)-one] | 306 nM
11 | Cc1ccnc(CN2C[C@@H](C)Oc3c(cc(Cn4ccnc4C)cc3-c3cn(C)nc3C(F)(F)F)C2=O)c1 [Example 40, (R)-2-Methyl-7-((2-methyl-1H-imidazol-1-yl)methyl)-9-(1-methyl-3-(trifluoromethyl)-1H-pyrazol-4-yl)-4-((4-methylpyridin-2-yl)methyl)-3,4-dihydrobenzo[f][1,4]oxazepin-5(2H)-one] | 529 nM
12 | COc1cc(Cn2cnc3c(-c4cn(C)nc4C(F)(F)F)cc(Cn4ccn(C)c4=N)cc3c2=O)cc(OC)c1 [Example 20, 3-(3,5-Dimethoxybenzyl)-6-((2-imino-3-methyl-2,3-dihydro-1H-imidazol-1-yl)methyl)-8-(1-methyl-3-(trifluoromethyl)-1H-pyrazol-4-yl)quinazolin-4(3H)-one] | 630 nM

More lines, in order of falling GI50, values ahead:

Row | GI50 | Compound
13 | 231 nM | Cc1cc(C)nc(CN2CCOc3c(cc(Cn4cnn(C)c4=N)cc3-c3cn(C)nc3C(F)(F)F)C2=O)c1 [Example 31, 4-((4,6-dimethylpyridin-2-yl)methyl)-7-((5-imino-1-methyl-1,5-dihydro-4H-1,2,4-triazol-4-yl)methyl)-9-(1-methyl-3-(trifluoromethyl)-1H-pyrazol-4-yl)-3,4-dihydrobenzo[f][1,4]oxazepin-5(2H)-one]
14 | 173 nM | Cc1cc(C)nc(CN2CCOc3c(cc(Cn4ccn(C)c4=N)cc3-c3cn(C)nc3C(F)(F)F)C2=O)c1 [Example 22, 4-((4,6-Dimethylpyridin-2-yl)methyl)-7-((2-imino-3-methyl-2,3-dihydro-1H-imidazol-1-yl)methyl)-9-(1-methyl-3-(trifluoromethyl)-1H-pyrazol-4-yl)-3,4-dihydrobenzo[f][1,4]oxazepin-5(2H)-one]
15 | 167 nM | COc1cc(CN2CC(=O)Nc3c(cc(Cn4ccn(C)c4=N)cc3-c3ccc(F)cc3C)C2=O)cc(OC)c1 [Example 14, 4-(3,5-Dimethoxybenzyl)-9-(4-fluoro-2-methylphenyl)-7-((2-imino-3-methyl-2,3-dihydro-1H-imidazol-1-yl)methyl)-3,4-dihydro-1H-benzo[e][1,4]diazepine-2,5-dione]
16 | 135 nM | Cc1cc(C)nc(CN2CCOc3c(cc(Cn4ccnc4C)cc3-c3cn(C)nc3C(F)(F)F)C2=O)c1 [Example 26, 4-((4,6-Dimethylpyridin-2-yl)methyl)-7-((2-methyl-1H-imidazol-1-yl)methyl)-9-(1-methyl-3-(trifluoromethyl)-1H-pyrazol-4-yl)-3,4-dihydrobenzo[f][1,4]oxazepin-5(2H)-one]
17 | 130 nM | COc1cc(CN2C[C@@H](C)Oc3c(cc(Cn4ccn(C)c4=N)cc3-c3ccc(F)cc3C)C2=O)cc(OC)c1 [Example 33, (R)-4-(3,5-dimethoxybenzyl)-9-(4-fluoro-2-methylphenyl)-7-((2-imino-3-methyl-2,3-dihydro-1H-imidazol-1-yl)methyl)-2-methyl-3,4-dihydrobenzo[f][1,4]oxazepin-5(2H)-one]
18 | 111 nM | CCn1cc(-c2cc(Cn3ccnc3C)cc3c2OCCN([C@H](c2cc(OC)ccn2)C2CC2)C3=O)c(C(F)(F)F)n1 [Example 60, (S)-4-(Cyclopropyl(4-methoxypyridin-2-yl)methyl)-9-(1-ethyl-3-(trifluoromethyl)-1H-pyrazol-4-yl)-7-((2-methyl-1H-imidazol-1-yl)methyl)-3,4-dihydrobenzo[f][1,4]oxazepin-5(2H)-one]
19 | 95 nM | Cc1cc(C)nc(CN2CCOc3c(cc(Cn4ccnc4C)cc3-c3ccc(F)cc3Cl)C2=O)c1 [Example 48, 9-(2-Chloro-4-fluorophenyl)-4-((4,6-dimethylpyridin-2-yl)methyl)-7-((2-methyl-1H-imidazol-1-yl)methyl)-3,4-dihydrobenzo[f][1,4]oxazepin-5(2H)-one]
20 | 70 nM | CCn1cc(-c2cc(Cn3ccnc3)cc3c2OCCN([C@H]2CCOc4ccc(OC)cc42)C3=O)c(C(F)(F)F)n1 [Example 63, (S)-7-((1H-imidazol-1-yl)methyl)-9-(1-ethyl-3-(trifluoromethyl)-1H-pyrazol-4-yl)-4-(6-methoxychroman-4-yl)-3,4-dihydrobenzo[f][1,4]oxazepin-5(2H)-one]
21 | 67 nM | COc1ccnc([C@H](C)N2CCOc3c(cc(Cn4cnn(C)c4=N)cc3-c3cn(C)nc3C(F)(F)F)C2=O)c1 [Example 53, (S)-7-((5-Imino-1-methyl-1,5-dihydro-4H-1,2,4-triazol-4-yl)methyl)-4-(1-(4-methoxypyridin-2-yl)ethyl)-9-(1-methyl-3-(trifluoromethyl)-1H-pyrazol-4-yl)-3,4-dihydrobenzo[f][1,4]oxazepin-5(2H)-one]
22 | 39 nM | COc1cc(OC)c2nc(C)cc(N3CCOc4c(cc(Cn5ccnc5)cc4-c4cn(C)nc4C(F)(F)F)C3=O)c2c1 [Example 69, 7-((1H-imidazol-1-yl)methyl)-4-(6,8-dimethoxy-2-methylquinolin-4-yl)-9-(1-methyl-3-(trifluoromethyl)-1H-pyrazol-4-yl)-3,4-dihydrobenzo[f][1,4]oxazepin-5(2H)-one]
23 | 37 nM | COc1ccnc([C@H](C)N2CCOc3c(cc(Cn4ccnc4C)cc3-c3cc(C)ccc3C)C2=O)c1 [Example 56, (S)-9-(2,5-Dimethylphenyl)-4-(1-(4-methoxypyridin-2-yl)ethyl)-7-((2-methyl-1H-imidazol-1-yl)methyl)-3,4-dihydrobenzo[f][1,4]oxazepin-5(2H)-one]
24 | 11 nM | Cc1ccnc(CN2CCOc3c(cc(Cn4ccn(C)c4=N)cc3-c3ccc(F)cc3C)C2=O)c1 [Example 11, 9-(4-Fluoro-2-methylphenyl)-7-((2-imino-3-methyl-2,3-dihydro-1H-imidazol-1-yl)methyl)-4-((4-methylpyridin-2-yl)methyl)-3,4-dihydrobenzo[f][1,4]oxazepin-5(2H)-one]
